Reference: PubChem BioAssay (NCI)
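How tested: cells in 96-well plates exposed to compound for 48 hours at five concentrations. GI50 marks 50% less growth. TGI is the concentration that stops growth completely.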

Columns and labels:
Assay in all cases: DTP human tumour cell line panel, 48 h
A549 NSCLC = test system: A549 NSCLC
HCT-15 colon = test system: HCT-15 colon
K-562 leukemia = test system: K-562 leukemia
M14 melanoma = test system: M14 melanoma
NCI-H226 lung = test system: NCI-H226 lung
NCI-H23 lung = test system: NCI-H23 lung
NCI-H522 lung = test system: NCI-H522 lung
OVCAR-4 ovarian = test system: OVCAR-4 ovarian
OVCAR-8 ovarian = test system: OVCAR-8 ovarian
SF-268 CNS = test system: SF-268 CNS

SMILES	TGI (A549 NSCLC) [µM]	TGI (HCT-15 colon) [µM]	TGI (K-562 leukemia) [µM]	TGI (M14 melanoma) [µM]	TGI (NCI-H226 lung) [µM]	TGI (NCI-H23 lung) [µM]	TGI (NCI-H522 lung) [µM]	TGI (OVCAR-4 ovarian) [µM]	TGI (OVCAR-8 ovarian) [µM]	TGI (SF-268 CNS) [µM]	GI50 (A549 NSCLC) [µM]	GI50 (HCT-15 colon) [µM]	GI50 (K-562 leukemia) [µM]	GI50 (M14 melanoma) [µM]	GI50 (NCI-H226 lung) [µM]	GI50 (NCI-H23 lung) [µM]	GI50 (NCI-H522 lung) [µM]	GI50 (OVCAR-4 ovarian) [µM]	GI50 (OVCAR-8 ovarian) [µM]	GI50 (SF-268 CNS) [µM]
O=c1[nH]c(/C=C(\O)c2ccncc2)nc2ccccc12	> 100	> 100	> 100	> 100	> 100	> 100	> 100	> 100	> 100	> 100										
CCC(/C(=N\Nc1c(Cl)cc(Cl)cc1Cl)c1ccccc1)n1ccnc1C (stereo unspecified)	38.1	24.4	51.6	28.6	35	25.3	18.1	30	37.2	47.2										
CN(C)CCC1(C2=CCCC2)CC/C(=C\c2ccccc2)C1=O (stereo unspecified)	41.9	26.6	46.5	30.2	31.1	46.9	27.4	31	29.6	42.2										
O=c1cccc(C#CC#C/C=C/CO)o1	13.1	5.15	> 100		7.68	3.18		> 100	6.62	17.1	3.65	1.98	4.92	4.12	1.31	1.73	1.45	3.1	2.37	2.44
C[C@]12CC[C@H]3[C@@H](C[C@@H]4N=C(c5ccc(O)cc5)S[C@@]45C[C@H](O)CC[C@]35C)[C@@H]1CC[C@@H]2O	> 100	20.7	> 100	29.3	> 100	> 100	> 100	> 100	> 100	> 100	5.95	2.43	3.48	2.86	27.4	14	22.6	7.24	40.9	5.32
Nc1nc2c(c3cnccc13)C(c1cccc(Cl)c1)Cc1cnccc1-2 (stereo unspecified)	10.6	7.93	28.7	11	14.7	3.51	0.718	41	22.5	16.5	0.552	0.388	0.338	0.297	0.673	0.382	0.247	2.23	0.601	0.741
COC(=O)C(Cc1nc2ccccc2[nH]c1=O)C(=O)C(=O)Nc1ccc(OC)cc1[N+](=O)[O-] (stereo unspecified)	> 100	> 100	> 100	> 100	> 100	> 100	> 100	> 100	> 100	> 100										
CC([O-])C(=O)[O-].NCC1CCC1CN.[Pt+4] (stereo unspecified)	> 10	> 10	> 10	> 10	> 10	> 10	> 10	> 10	> 10	> 10	> 10	> 10	> 10	> 10	> 10	> 10	> 10	> 10	> 10	> 10
O=C1C(N2C(=O)c3ccccc3C2=O)CN1C(COCc1ccccc1)c1ccc(OCc2ccccc2)cc1 (stereo unspecified)	> 100	> 100	> 100	> 100	> 100	> 100	> 100	> 100	> 100	> 100										
O=C1OC2C(O)C(=O)OC2C1O (stereo unspecified)	> 100	> 100	> 100	> 100	> 100	> 100	> 100	> 100	> 100	> 100										
CSc1ccc2c(cc1=O)[C@@H](NC(=O)c1ccc(F)cc1)CCc1cc(O)c(O)c(O)c1-2	> 100	> 100	> 100	> 100	> 100	> 100	> 100	> 100	> 100	> 100										
CN1CCCCC1CCN1c2ccccc2Sc2ccc(S(C)=O)cc21 (stereo unspecified)	> 100	> 100	> 100	> 100	> 100	> 100	> 100	> 100	> 100	> 100										
CCCCCCCCCC(CCCC(O)CC(=O)O)OC1OC(COC2OC(C)C(O)C(O)C2O)C(O)C(O)C1OC1OC(CO)C(O)C(O)C1OC1OC(C)C(O)C(O)C1O (stereo unspecified)	> 40	> 40	> 40	> 40	> 40	> 40	> 40	> 40	> 40	> 40	> 40	> 40	> 40	> 40	> 40	> 40	> 40	> 40	> 40	> 40
CCN(CC(COc1ccc2c(c1)[n+]([O-])nc(N)[n+]2[O-])OC(C)=O)C(C)=O (stereo unspecified)	> 100	> 100	> 100	> 100	> 100	> 100	56.3	> 100	> 100	> 100										
CCC/C(=N\NC(=O)c1cc2ccccc2cc1O)C(CC)C(=O)CCC(=O)N(Cc1ccccc1)Cc1ccccc1 (stereo unspecified)	> 100	> 100	69.9	> 100	> 100	> 100	> 100	> 100	> 100	> 100										
Cc1ccc(S(=O)(=O)n2cc(-c3nnnn3-c3ccc(Cl)cc3)c(=O)c3ccccc32)cc1	> 100	> 100	> 100	> 100	> 100	> 100	> 100	> 100	> 100	> 100	76.3	> 100	20.1	49.5	> 100	> 100	41.3	53.7	> 100	> 100

SMILES	TGI (A549 NSCLC) [µM]	TGI (HCT-15 colon) [µM]	TGI (K-562 leukemia) [µM]	TGI (M14 melanoma) [µM]	TGI (NCI-H226 lung) [µM]	TGI (NCI-H23 lung) [µM]	TGI (NCI-H522 lung) [µM]	TGI (OVCAR-4 ovarian) [µM]	TGI (OVCAR-8 ovarian) [µM]	TGI (SF-268 CNS) [µM]	GI50 (A549 NSCLC) [µM]	GI50 (HCT-15 colon) [µM]	GI50 (K-562 leukemia) [µM]	GI50 (M14 melanoma) [µM]	GI50 (NCI-H226 lung) [µM]	GI50 (NCI-H23 lung) [µM]	GI50 (NCI-H522 lung) [µM]	GI50 (OVCAR-4 ovarian) [µM]	GI50 (OVCAR-8 ovarian) [µM]	GI50 (SF-268 CNS) [µM]
COc1ccc(-c2coc3cc(OC)cc(O)c3c2=O)cc1	> 100	> 100	> 100	> 100	> 100	> 100	> 100	> 100	> 100	> 100										
CN(C)/C(N)=N/C(N)=S	> 100	> 100	> 100	> 100	> 100	> 100	> 100	> 100	> 100	> 100										
N=c1ccn2c(n1)O[C@@H]1[C@@H](O)[C@H](CO)O[C@@H]12	> 100	> 100	> 100	3.39	> 100	> 100	> 100	> 100	> 100	> 100	0.41	11.4	> 100	0.428	3.52	1.09	0.294	10.4		4.8
CCOC(=O)/C=C/c1ccccn1	> 100	> 100	> 100	> 100	> 100	> 100	> 100	> 100	> 100	> 100										
O=C(CN1CCN(c2ccc(Cl)cc2)CC1)N1CCN(c2nnc(-c3ccccc3)c(-c3ccccc3)n2)CC1	> 100	> 100	> 100	> 100	> 100	> 100	> 100	> 100	> 100	> 100	28.6	5.12	5.91	> 100	> 100	4	16.2	1.75	52.4	> 100
COc1ccc(C#CCC(OC2OC(CO)C(O)C(O)C2O)C(O)c2ccc(OC)c(OC)c2)cc1OC (stereo unspecified)	> 100	> 100	> 100	> 100	> 100	> 100	> 100	> 100	> 100	> 100										
C=C1C(=O)OC2/C=C(\C)C3OC3/C=C(/C(=O)OC)C(OC(C)=O)C(OC(=O)C(C)(O)C(C)OC(C)=O)C12 (stereo unspecified)	35.5	> 34.1	17.1	8.05	15.7	11.2	0.871	12.6	6.92	34.1										
CC1=C(C(=O)Nc2ccccc2C)C(c2ccc(C3C(C(=O)Nc4ccccc4C)=CNC=C3C(=O)Nc3ccccc3C)cc2)C(C(=O)Nc2ccccc2C)=C(C)N1	> 100	41	> 73.4	33	33.5	36.5	18.9	22	> 74.8	17.4										
C=C(CN1CCN(c2cccc(F)c2)CC1)c1ccc(C(=O)Nc2ccccc2N)cc1	16.3	> 100	13.4	2.38	35.2	17.3	3.88	33.9	47.9	> 100	3.24	1.02	0.706	0.311	4.17	1.77	0.848	3.35	1.99	2.3
CSc1nc2c(c(=O)[nH]1)C(c1ccc(Cl)cc1)C1=C(N2)/C(=C/c2ccc(Cl)cc2)CNC1 (stereo unspecified)	5.91	5.54	15.1	6.18	3.27	5.84	4.81	19.2	8.72		2.21	2.04	3.09	2.23	1.62	2.48	1.85	4.76	2.7	2.76
COc1ccc(-c2nocc2-c2cc(OC)c(OC)c(OC)c2)cc1	> 100	> 100	> 100	5.82	56.1	> 86.5	0.499	> 100	> 100	> 85.9	0.0907	0.0447	0.0426	0.054	14.9	0.445	0.0323	2.21	0.228	0.683
Cc1ccccc1/C=C1\CN(C(=O)OC(C)(C)C)C/C(=C\c2ccccc2C)C1=O	9.17	5.76	> 100	13.5	4.14	4.99	6.63	14.1	> 100	10.6	2.82	2.1	2.86	2.97	2.01	2.2	2.2	2.6	3.49	2.95
Cc1cc2c(cc1C)[n+](=O)c(C(=O)/C=C/c1ccccc1Cl)c(C)n2[O-]	> 100	75.3	> 100	51.7	> 100	46.7	26.7	> 100	63.8	95.9										
CC(C)[C@@H]1CC[C@@H]2[C@@H]1[C@H](OC(=O)/C=C/c1ccccc1)[C@]1(C(C)C)C[C@@H](OC(=O)CO)[C@@]2(C)O1	14.4	10	24.1	12.1	10.9	14.1	13.2	9.93	9.86	9.03	6.61	4.72	10.4	5.83	5.27	6.88	6.19	5.15	0.0259	4.02
CC(C)CC(=O)NS(=O)(=O)c1ccccc1	> 100	> 100	> 100	> 100	> 100	> 100	> 100	> 100	> 100	> 100										
CC1=C(c2cc(C(=O)Nc3nccs3)nc(NC#N)n2)Sc2ccccc2N1	> 100	> 100	> 100	> 100	> 100	> 100	> 100	> 100	> 100	> 100										
